Experimental data from patent US20040242524A1, “Chemotherapeutic composition and method” (priority 1998, published 2004).
Converted amounts (≈) assume the structure as drawn. “And” between values parts separate entries of the source, which are not always exact repeats. Equal entries are not always repeated. Where two headings read alike, the source gives them in different places.

Experiments:
B-16 melanoma cells [1] = assay: Inhibition of B-16 melanoma cell proliferation by chemotherapeutic agents ± MCC (MTT reduction); type: cell-based, murine; settings: for inhibited proliferation: 72 h, MTT; for IC50: B16
Method: B-16 melanoma cells, at 3×10^5 cells/ml, were incubated for 72 h with the chemotherapeutic agents mitomycin-C, 5-fluorouracil and cisplatin in the absence and in the presence of MCC. Cell proliferation was determined using dimethylthiazol-diphenyltetrazolium bromide (MTT) reduction (Mosman et al. Journal of Immunological Methods 65:55-63, 1983). After 72 h, 20 μl of MTT in culture medium was added to each well and incubated for 3 h. Medium was then aspirated from each well, 100 μl of acidified isopropyl alcohol was added to each sample and reduced MTT was solubilized by mixing. The absorbency of the reaction product was determined using an ELISA microplate reader at a wavelength of 570 nm.
B-16 melanoma cells were incubated with 0.01 to 100 μg/ml of mitomycin-C, with 1 to 100 μg/ml of MCC and with 0.01 to 10 μg/ml of mitomycin-C+1 μg/ml MCC. Mitomycin-C is an anti-tumor antibiotic produced by Streptomyces caespitosus, which cross-links DNA, depolymerizes DNA and forms free radicals.
B-16 melanoma cells were incubated with 0.01 to 100 μg/ml of 5-fluorouracil, with 1 to 100 μg/ml of MCC and with 0.01 to 10 μg/ml of 5-fluorouracil+1 μg/ml MCC. 5-fluorouracil is an antimetabolite, which interferes with DNA and RNA synthesis.
B-16 melanoma cells were incubated with 0.01 to 100 μg/ml of cisplatin, with 1 to 100 μg/ml of MCC and with 0.01 to 10 μg/ml of cisplatin+1 μg/ml MCC. Cisplatin is an alkylating agent that cross-links DNA and inhibits DNA precursors.

B-16 melanoma tumors = assay: Effects of M-DNA and MCC in combination with mitomycin-C on B-16 melanoma tumors in mice; type: in vivo; settings: nude BALB/c mice, subcutaneous B-16, after 4 weeks of treatment; Group 1 saline, Group 4 mitomycin-C
Method: B-16 melanoma cells are implanted subcutaneously into 30 male nude BALB/c mice and allowed to grow for 10 days. The mice are divided into 6 groups and tumor mass is measured in each mouse. On day 0, Group 1 mice receive saline, Group 2 mice receive M-DNA, Group 3 mice receive MCC, Group 4 mice receive mitomycin-C, Group 5 mice receive M-DNA and mitomycin-C and Group 6 mice receive MCC and mitomycin-C. After 4 weeks of treatment, the mice are sacrificed and the tumor mass and number of metastases are determined. Group 1 mice have the most tumor mass.

[2] = test system: promyelocytic HL60 leukemia cells (HL-60); assay: Cell cycle analysis, synchronously dividing (MTX) HL-60 cells; type: cell-based, human; settings: MTX alone (0.04 μM)
Method: (§1) Cell cycle stage was determined using a CYCLETEST™ PLUS DNA commercial kit (Becton Dickinson, San Jose, Calif., USA). Briefly, nuclei from treated cells were obtained by dissolving the cell membrane in a nonionic detergent, eliminating the cell cytoskeleton and nuclear proteins with trypsin, digesting the cellular RNA with RNase, and stabilizing the nuclear chromatin with spermine. Propidium iodide was added to the cell nuclei and their fluorescence was analyzed in a flow cytometer equipped with electronic doublet discrimination capability (FACSCalibur, Becton Dickinson). Accumulation of cells in GO/G1, S (SE, SM, SL) or G2/M phases of the cell cycle was analyzed using MODFIT LT software (Verity Software House Inc., Topsham, Mass., USA). Results are expressed as percentage of cells in each phase of the cell cycle.
(§2) To synchronize cell populations, exponentially growing cells were incubated in tissue culture medium containing 0.04 to 0.16 μM methotrexate (MTX) for 20 hours. The MTX medium was removed, cells were washed extensively with phosphate buffered saline (PBS), fresh medium was added, incubation was continued for 8 hours and cell cycle analysis was performed as in Example 4.
(§3) Exponentially growing Jurkat, HL-60, HL-60MX1 and EL-4 cells, at 1×10^6 cells/ml, and B-16 cells, at 3×10^5 cells/ml, were prepared for analysis as in Example 5 with 0, 10 and 100 μg/ml of MCC in the MTX medium.

[3] = test system: Jurkat T cell leukemia cells; assay: Cell cycle analysis, synchronously dividing (MTX) Jurkat cells; type: cell-based, human; settings: MTX alone (0.08 μM)
Method: as §1, §2, §3
Exponentially growing Jurkat leukemia cells, at 1×10^6 cells/ml, were prepared for analysis as in Example 5 with 0 and 10 μg/ml of MCC and 10 μg/ml DNase I-treated MCC in the MTX medium.

EL-4 lymphoma cells = assay: Cell cycle analysis, synchronously dividing (MTX) EL-4 cells; type: cell-based, murine; settings: MTX alone (0.16 μM)
Method: as §1, §2, §3

[4] = test system: mitoxantrone resistant promyelocytic HL-60MX1 leukemia cells; assay: Cell cycle analysis, synchronously dividing (MTX) HL-60MX1 cells; type: cell-based, human; settings: MTX alone (0.04 μM)
Method: as §1, §2, §3

B-16 melanoma cells [5] = assay: Cell cycle analysis, synchronously dividing (MTX) B-16 cells; type: cell-based, murine; settings: MTX alone
Method: as §1, §2, §3

[6] = 0.1 μg/ml, in the presence of 1 μg/ml MCC
[7] = 1 μg/ml, in the presence of 1 μg/ml MCC

## N.N.[Cl][Pt][Cl] [cisplatin]
B-16 melanoma cells [1]; 0.01 μg/ml, agent alone
  inhibited proliferation: 0%
B-16 melanoma cells [1]; 0.01 μg/ml, in the presence of 1 μg/ml MCC
  inhibited proliferation: about 40%
B-16 melanoma cells [1]; 0.1 μg/ml, agent alone
  inhibited proliferation: about 8%
B-16 melanoma cells [1]; [6]
  inhibited proliferation: about 50%
B-16 melanoma cells [1]; 1 μg/ml, agent alone
  inhibited proliferation: about 62%
B-16 melanoma cells [1]; [7]
  inhibited proliferation: about 70%
B-16 melanoma cells [1]; 10 μg/ml, agent alone
  inhibited proliferation: about 90%
B-16 melanoma cells [1]; 10 μg/ml, in the presence of 1 μg/ml MCC
  inhibited proliferation: about 90%
B-16 melanoma cells [1]; 100 μg/ml, agent alone
  inhibited proliferation: 100%
B-16 melanoma cells [1]
  IC50 (concentration for 50% inhibition of B-16 melanoma cell proliferation), Drug + MCC at 1 μg/ml: 0.16 µg/mL
  IC50 (concentration for 50% inhibition of B-16 melanoma cell proliferation), Drug Alone: 0.6 µg/mL

## O=c1[nH]cc(F)c(=O)[nH]1 [5-fluorouracil]
B-16 melanoma cells [1]; Mus musculus, B16, 72 h, read-out: inhibited proliferation, 0.01 μg/ml, agent alone, 72 h, MTT
  inhibition at 0.01 µg/mL: ~8%
B-16 melanoma cells [1]; Mus musculus, B16, 72 h, read-out: inhibited proliferation, 0.01 μg/ml, in the presence of 1 μg/ml MCC, 72 h, MTT
  inhibition at 0.01 µg/mL: ~75%
B-16 melanoma cells [1]; Mus musculus, B16, 72 h, read-out: inhibited proliferation, 0.1 μg/ml, agent alone, 72 h, MTT
  inhibition at 0.1 µg/mL: ~50%
B-16 melanoma cells [1]; Mus musculus, B16, 72 h, read-out: inhibited proliferation, 0.1 μg/ml, in the presence of 1 μg/ml MCC, 72 h, MTT
  inhibition at 0.1 µg/mL: ~85%
B-16 melanoma cells [1]; Mus musculus, B16, 72 h, read-out: inhibited proliferation, 1 μg/ml, agent alone, 72 h, MTT
  inhibition at 1 µg/mL: ~90%
B-16 melanoma cells [1]; Mus musculus, B16, 72 h, read-out: inhibited proliferation, 1 μg/ml, in the presence of 1 μg/ml MCC, 72 h, MTT
  inhibition at 1 µg/mL: ~90%
B-16 melanoma cells [1]; Mus musculus, B16, 72 h, read-out: inhibited proliferation, 10 μg/ml, agent alone, 72 h, MTT
  inhibition at 10 µg/mL: 100%
B-16 melanoma cells [1]; Mus musculus, B16, 72 h, read-out: inhibited proliferation, 10 μg/ml, in the presence of 1 μg/ml MCC, 72 h, MTT
  inhibition at 10 µg/mL: 100%
B-16 melanoma cells [1]; Mus musculus, B16, 72 h, read-out: inhibited proliferation, 100 μg/ml, agent alone, 72 h, MTT
  inhibition at 100 µg/mL: 100%
B-16 melanoma cells [1]; Mus musculus, read-out: IC50 (concentration for 50% inhibition of B-16 melanoma cell proliferation), Drug + MCC at 1 μg/ml
  IC50: 0.005 µg/mL
B-16 melanoma cells [1]; Mus musculus, read-out: IC50 (concentration for 50% inhibition of B-16 melanoma cell proliferation), Drug Alone
  IC50: 0.12 µg/mL (≈ 0.923 µM)

## CO[C@@]12[C@H](COC(N)=O)C3=C(C(=O)C(C)=C(N)C3=O)N1C[C@@H]1N[C@@H]12 [mitomycin-C]
B-16 melanoma cells [1]; 0.1 μg/ml, agent alone
  inhibited proliferation: about 5%
B-16 melanoma cells [1]; [6]
  inhibited proliferation: about 40%
B-16 melanoma cells [1]; 1 μg/ml, agent alone
  inhibited proliferation: about 10%
B-16 melanoma cells [1]; [7]
  inhibited proliferation: about 65%
B-16 melanoma cells [1]; 10 μg/ml, agent alone
  inhibited proliferation: 100%
B-16 melanoma cells [1]; 100 μg/ml, agent alone
  inhibited proliferation: 100%
B-16 melanoma cells [1]; 100 μg/ml, in the presence of 1 μg/ml MCC
  inhibited proliferation: 100%
B-16 melanoma cells [1]
  IC50 (concentration for 50% inhibition of B-16 melanoma cell proliferation), Drug + MCC at 1 μg/ml: 0.12 µg/mL
  IC50 (concentration for 50% inhibition of B-16 melanoma cell proliferation), Drug Alone: 2.2 µg/mL
B-16 melanoma tumors
  tumor mass: less tumor mass than Group 1 mice

## CN(Cc1cnc2nc(N)nc(N)c2n1)c1ccc(C(=O)N[C@@H](CCC(=O)O)C(=O)O)cc1 [MTX, methotrexate]
[2]
  PERCENTAGE OF CELLS IN EACH PHASE: G0G1 + SE: 50.3%
  PERCENTAGE OF CELLS IN EACH PHASE: SL + G2M: 25.5%
  PERCENTAGE OF CELLS IN EACH PHASE: SM: 24.2%
[3]
  PERCENTAGE OF CELLS IN EACH PHASE: G0G1 + SE: 44.6% and 43.0%
  PERCENTAGE OF CELLS IN EACH PHASE: SL + G2M: 30.1% and 31.4%
  PERCENTAGE OF CELLS IN EACH PHASE: SM: 25.3% and 25.6%
EL-4 lymphoma cells
  PERCENTAGE OF CELLS IN EACH PHASE: G0G1 + SE: 18.3%
  PERCENTAGE OF CELLS IN EACH PHASE: SL + G2M: 63.3%
  PERCENTAGE OF CELLS IN EACH PHASE: SM: 18.4%
[4]
  PERCENTAGE OF CELLS IN EACH PHASE: G0G1 + SE: 46.1%
  PERCENTAGE OF CELLS IN EACH PHASE: SL + G2M: 18.4%
  PERCENTAGE OF CELLS IN EACH PHASE: SM: 35.5%
B-16 melanoma cells [5]
  PERCENTAGE OF CELLS IN EACH PHASE: G0G1 + SE: 48.3%
  PERCENTAGE OF CELLS IN EACH PHASE: SL + G2M: 46.3%
  PERCENTAGE OF CELLS IN EACH PHASE: SM: 5.4%
